Test [1] relates to HepG2. Nature of the test: Selectivity index, ratio of IC50 for human HepG2 cells to IC50 for mouse N9 cells. The test is classed as functional.
In test [2] the test system is N9. The experiment in a line: Selectivity index, ratio of IC50 for human MDA-MB-468 cells to IC50 for mouse N9 cells. It is filed as functional.
Test [3] concerns N9. The experiment in a line: Selectivity index, ratio of IC50 for mouse RAW264.7 cells to IC50 for mouse N9 cells. It is filed as functional.
For test [4], the system named is N9. Nature of the test: Selectivity index, ratio of IC50 for human THP1 cells to IC50 for mouse N9 cells. It is filed as functional.
Test [5] relates to EL4. The experiment in a line: Selectivity index, ratio of IC50 for mouse EL4 cells to IC50 for mouse N9 cells. The test is classed as functional.
For test [6], the system named is N9. The experiment in a line: Selectivity index, ratio of IC50 for human U937 cells to IC50 for mouse N9 cells. The test is classed as functional.
Test [7] concerns HepG2. The experiment in a line: Cytotoxicity against human HepG2 cells assessed as reduction in cell viability after 72 hrs by MTT colorimetric assay. It is filed as functional, cell-based. The settings on record: HepG2, 72 h.
The subject of test [8] is MDA-MB-468. Nature of the test: Cytotoxicity against human MDA-MB-468 cells assessed as reduction in cell viability after 72 hrs by MTT colorimetric assay. The test is classed as functional, cell-based. The settings on record: MDA-MB-468, 72 h. For orientation: Formazan colour is commonly taken as a measure of viable cells.
For test [9], the system named is RAW264.7. The experiment in a line: Cytotoxicity against mouse RAW264.7 cells assessed as reduction in cell viability after 72 hrs by MTT colorimetric assay. The test is classed as functional, cell-based. The settings on record: RAW264.7, 72 h.
Test [10] relates to THP-1. The experiment in a line: Cytotoxicity against human THP1 cells assessed as reduction in cell viability after 72 hrs by MTT colorimetric assay. The test is classed as functional, cell-based. The settings on record: THP-1, 72 h.
Test [11] deals with EL4. Nature of the test: Cytotoxicity against mouse EL4 cells assessed as reduction in cell viability after 72 hrs by MTT colorimetric assay. The settings on record: EL4, 72 h. It is filed as functional, cell-based.
Test [12] is described as follows: Cytotoxicity against human U937 cells assessed as reduction in cell viability after 72 hrs by MTT colorimetric assay. It is filed as functional, cell-based. The settings on record: U-937, 72 h.
Test [13] in a line: Cytotoxicity against mouse S17 cells assessed as reduction in cell viability after 72 hrs by MTT colorimetric assay. It is filed as cell-based. The settings on record: S17, 72 h.
For test [14], the system named is HepG2. Nature of the test: Selectivity index, ratio of IC50 for human HepG2 cells to IC50 for mouse S17 cells. It is filed as functional.
Test [15] in a line: Selectivity index, ratio of IC50 for human MDA-MB-468 cells to IC50 for mouse S17 cells. The test is classed as functional.
For test [16], the system named is THP-1. The experiment in a line: Selectivity index, ratio of IC50 for human THP1 cells to IC50 for mouse S17 cells. It is filed as functional.

Usually IC50 stands for the concentration needed to halve the response being measured.

For `O/N=C(/c1ccc(Br)cc1)C(c1c[nH]c2ccccc12)c1c[nH]c2ccccc12`, the “Ratio IC50” value in test [1] stood at 1.38; in [2], 1.04; in test [3] it was 0.96; in [4], 14.2; in test [5], 13.94; in test [6], 14.02. In addition, the “Ratio IC50” value in [14] is 0.98; in test [15], 0.73; in [16] it was 10.04. The IC50 was found to be 16.6 µM in [7]; 22.1 µM in [8]; 23.9 µM in test [9]; 1.62 µM in test [10]; 1.65 µM in [11]; 1.64 µM in test [12]. In addition, the IC50 in test [13] amounted to 16.3 µM.

Take `Cn1cc(C(/C(=N\O)c2ccc(Br)cc2)c2cn(C)c3ccccc23)c2ccccc21`: the “Ratio IC50” value was found to be 0.56 in test [1]; 0.31 in test [2]; 0.47 in test [3]; 0.16 in test [4]; 0.19 in test [5]; 0.2 in [6]. The results for the “Ratio IC50” value in test [14], in test [15] and in test [16] were 1.44, 0.81 and 0.41, respectively. In addition, the IC50 in test [7] worked out at 35.7 µM; in [8] it was 63.7 µM; in test [9], 42.2 µM; in test [10], 124 µM; in test [11], 106 µM; in test [12] it was 97 µM. In addition, the IC50 in test [13] was 51.4 µM.

`O/N=C(/c1ccccc1)C(c1c[nH]c2ccccc12)c1c[nH]c2ccccc12`: the “Ratio IC50” value was determined as 1.05 in test [1]; 2.72 in test [2]; 2.4 in [3]; 1.61 in test [4]; 2.45 in test [5]; 0.86 in test [6]. Further, the “Ratio IC50” value in test [14] was 0.94; in [15] it was 2.45. The IC50 turned out to be 28 µM in test [7]; 10.7 µM in test [8]; 12.2 µM in test [9]; 18.1 µM in [10]; 11.9 µM in [11]; 34.1 µM in [12]. For the same compound, the IC50 in test [13] is 26.3 µM.

Take `O/N=C(/c1ccc(F)cc1)C(c1c[nH]c2ccccc12)c1c[nH]c2ccccc12`: the IC50 is 23 µM in test [10], 16.9 µM in [11], 28 µM in test [12] and 24.9 µM in test [13]. Also, the “Ratio IC50” value in test [16] amounted to 0.89.

In the case of `C/C(=N\O)C(c1c[nH]c2ccccc12)c1c[nH]c2ccccc12`, the IC50 was determined as 30.7 µM in test [10], 23.9 µM in test [11], 42.5 µM in test [12] and 26.1 µM in [13]. Further, in [16], the “Ratio IC50” value was determined as 0.62.

Consider `C/C(=N/O)C(c1c[nH]c2ccccc12)c1c[nH]c2ccccc12`, for which the IC50 in [10] was 57.6 µM; in test [11], 39 µM; in test [12], 59.3 µM; in [13] it was 35.8 µM. For the same compound, in test [16], the “Ratio IC50” value stood at 0.6.

With `COc1cc([C@@H]2c3cc4c(cc3[C@@H](O[C@@H]3O[C@@H]5CO[C@@H](C)O[C@H]5[C@H](O)[C@H]3O)[C@H]3COC(=O)[C@H]23)OCO4)cc(OC)c1O` [ETOPOSIDE], the “Ratio IC50” value in test [1] is 1.71; in test [2], 0.88; in [5], 0.8; in [14], 8.97; in test [16] it was 8.55. The 50% inhibitory concentration (IC50) in test [7] is 1.4 µM; in [8], 6.69 µM; in test [9] it was 0.82 µM; in [10], 1.82 µM; in [11] it was 4.9 µM; in test [12], 1.1 µM. Moreover, the IC50 in [13] came out at 10.4 µM.

Values taken from ChEMBL document CHEMBL3407451, “Novel approach to bis(indolyl)methanes: de novo synthesis of 1-hydroxyiminomethyl derivatives with anti-cancer properties” (Eur J Med Chem, 2015).
